Tests used:
MDA-MB231 cells [1] = assay: Live/dead determination of gel-embedded cell spheroids treated with anticancer agents; type: cell-based, human; details: 48 hours, Batimastat 4 μM, Staurosporine 1 μM; for number of dead cells (share of cells) / Number of Dead cells / Number of Living cells: MDA-MB231 spheroid in Matrigel; for Number of Dead cells: green fluorescence cell nuclei counted; for Number of Living cells: red fluorescence cell nuclei counted
Experimental: (§1) The protrusion-forming ability of the cell spheroids of the cancer cells treated with various anticancer agents was examined. As the cancer cells, MDA-MB231 cells of a cultured cell strain established from a human breast cancer cells were used. MDA-MB 231 cells were cultured under a condition with a temperature of 37° C. and a CO2 concentration of 5 vol % in a culture medium of DMEM containing 10% FBS.
(§2) Two thousand MDA-MB 231 cells and 5 μL of 10×Spheroid Formation ECM (manufactured by Trevigen, Inc.) were mixed in a culture medium to prepare a cancer cell solution of which the final amount was adjusted to 50 μL using DMEM (phenol red free), and then 50 μL of the cancer cell solution was injected into one well of the U bottom plate for forming a cell spheroid “Prime Surface (registered trade mark) U plate” (manufactured by Sumitomo Bakelite Co., LTD.), followed by culturing the cells for 72 hours to form cell spheroids.
(§3) The culture medium was removed from the U bottom plate as much as possible by suction while paying attention not to suck the spheroids, followed by carefully adding 100 μL of Matrigel (manufactured by Corning Incorporated) to the well. The U bottom plate was allowed to stand in an incubator at 37° C. for 1 hour, and the gel was cured to construct a cell spheroid embedded in a gel.
100 μL of culture mediums containing L-Sulforaphane (final concentration: 10 μM), Batimastat (final concentration: 4 μM), Mitomycin C (final concentration: 10 μM), Paclitaxel (final concentration: 4 μM), or Staurosporine (final concentration: 1 μM) was added on the gel in which the cell spheroids were embedded, and then 0.1 μL ( 1/1000 of the culture medium amount) of “Nuclear ID green/red cell viability reagent” (manufactured by Enzo Life Science, Inc.) was further added thereto, followed by culturing them for 48 hours to infiltrate. By adding the live/dead determination reagent, the living cells were stained with red fluorescence and the dead cells were stained with green fluorescence. As a control, a cultivation in which a culture medium containing only the live/dead determination reagent was used was carried out in the same manner as the above-described cultivation except that the anticancer agents were not added.
The fluorescently labeled samples prepared in the above-described sections <Anticancer Agent Treatment and Treatment for Live/dead Determination> and <Anticancer Agent Treatment and Actin Staining> were imaged with a confocal laser microscope “FV 1200” (manufactured by Olympus Corporation). A 20-fold objective lens ([…]×20) was used to image, and the Z-slice interval was 2 μm. The total number of Z-slices was 60 to 100.
The series of plane tomographic image groups obtained by imaging the respective fluorescently labeled samples were superimposed to construct a stereoscopic image. The obtained stereoscopic image was binarized to obtain a binarized image.
For the binarized images obtained from the fluorescently labeled samples treated with the live/dead determination reagent, the number of cell nuclei of red fluorescence and green fluorescent were measured.

MDA-MB231 cells [2] = assay: Evaluation of protrusion-forming ability of cell spheroids from stereoscopic image (central sphere volume ratio); type: cell-based, human; details: 48 hours, L-Sulforaphane 10 μM, Batimastat 4 μM, Mitomycin C 10 μM, Paclitaxel 4 μM, Staurosporine 1 μM
Experimental: as §1, §2
as §3, with “gel. […]” for “gel.”

SMILES | number of dead cells (share of cells) (MDA-MB231 cells [1]) | Number of Dead cells (MDA-MB231 cells [1]) | Number of Living cells (MDA-MB231 cells [1]) | central sphere volume ratio ([volume of non-protrusion part]/[total volume of cell spheroid]) from stereoscopic image (MDA-MB231 cells [2]; FIG. 3, actin staining) | protrusion formation / protrusion-forming ability (MDA-MB231 cells [2]; stereoscopic image) | induction of cell death (MDA-MB231 cells [1]; MDA-MB231 spheroid)
CNC(=O)[C@H](Cc1ccccc1)NC(=O)[C@H](CC(C)C)[C@H](CSc1cccs1)C(=O)NO [Batimastat] | about 24% | 562 | 1738 |  |  | 
CO[C@@]12[C@H](COC(N)=O)C3=C(C(=O)C(C)=C(N)C3=O)N1C[C@@H]1N[C@@H]12 [Mitomycin C] |  |  |  | higher central sphere volume ratio as compared with the remaining three anticancer agent-treated samples | suppressed more strongly | 
CN[C@@H]1C[C@H]2O[C@@](C)([C@@H]1OC)n1c3ccccc3c3c4c(c5c6ccccc6n2c5c31)C(=O)NC4 [Staurosporine] | about 70% | 1631 ± 414 | 576 ± 67 |  |  | cell death was induced
